Earlier results, collected in patent publication US9352019B2, “Using heat shock proteins to improve the therapeutic benefit of a non-vaccine treatment modality” (University of Connecticut Health Center, priority 2002, dated 2016).
Where a name gives a salt, the structure may show the parent alone.

Test system: CML
Conditions: Gleevec alone; Druker et al., 2002

Cc1ccc(NC(=O)c2ccc(CN3CCN(C)CC3)cc2)cc1Nc1nccc(-c2cccnc2)n1 [Gleevec™, imatinib mesylate]
patients achieving responses using these same criteria: less than 10% of patients
